A word on the inhibition: it is the relative decrease from the control value, in per cent. Low values mean a weak effect, high ones a strong effect.

Drawing on ChEMBL document CHEMBL1146408, “Makaluvamine N: a new pyrroloiminoquinone from Zyzzya fuliginosa” (1997), this text covers inhibition for one compound.

The assay concerns the target DNA topoisomerase 2-alpha (Homo sapiens) (UniProt P11388). Description: Inhibition of human topoisomerase 2alpha-mediated supercoiled pBR322 DNA relaxation at 5 ug/ml by agarose gel electrophoresis.

Sequence of DNA topoisomerase 2-alpha (Homo sapiens) (P11388 whole entry): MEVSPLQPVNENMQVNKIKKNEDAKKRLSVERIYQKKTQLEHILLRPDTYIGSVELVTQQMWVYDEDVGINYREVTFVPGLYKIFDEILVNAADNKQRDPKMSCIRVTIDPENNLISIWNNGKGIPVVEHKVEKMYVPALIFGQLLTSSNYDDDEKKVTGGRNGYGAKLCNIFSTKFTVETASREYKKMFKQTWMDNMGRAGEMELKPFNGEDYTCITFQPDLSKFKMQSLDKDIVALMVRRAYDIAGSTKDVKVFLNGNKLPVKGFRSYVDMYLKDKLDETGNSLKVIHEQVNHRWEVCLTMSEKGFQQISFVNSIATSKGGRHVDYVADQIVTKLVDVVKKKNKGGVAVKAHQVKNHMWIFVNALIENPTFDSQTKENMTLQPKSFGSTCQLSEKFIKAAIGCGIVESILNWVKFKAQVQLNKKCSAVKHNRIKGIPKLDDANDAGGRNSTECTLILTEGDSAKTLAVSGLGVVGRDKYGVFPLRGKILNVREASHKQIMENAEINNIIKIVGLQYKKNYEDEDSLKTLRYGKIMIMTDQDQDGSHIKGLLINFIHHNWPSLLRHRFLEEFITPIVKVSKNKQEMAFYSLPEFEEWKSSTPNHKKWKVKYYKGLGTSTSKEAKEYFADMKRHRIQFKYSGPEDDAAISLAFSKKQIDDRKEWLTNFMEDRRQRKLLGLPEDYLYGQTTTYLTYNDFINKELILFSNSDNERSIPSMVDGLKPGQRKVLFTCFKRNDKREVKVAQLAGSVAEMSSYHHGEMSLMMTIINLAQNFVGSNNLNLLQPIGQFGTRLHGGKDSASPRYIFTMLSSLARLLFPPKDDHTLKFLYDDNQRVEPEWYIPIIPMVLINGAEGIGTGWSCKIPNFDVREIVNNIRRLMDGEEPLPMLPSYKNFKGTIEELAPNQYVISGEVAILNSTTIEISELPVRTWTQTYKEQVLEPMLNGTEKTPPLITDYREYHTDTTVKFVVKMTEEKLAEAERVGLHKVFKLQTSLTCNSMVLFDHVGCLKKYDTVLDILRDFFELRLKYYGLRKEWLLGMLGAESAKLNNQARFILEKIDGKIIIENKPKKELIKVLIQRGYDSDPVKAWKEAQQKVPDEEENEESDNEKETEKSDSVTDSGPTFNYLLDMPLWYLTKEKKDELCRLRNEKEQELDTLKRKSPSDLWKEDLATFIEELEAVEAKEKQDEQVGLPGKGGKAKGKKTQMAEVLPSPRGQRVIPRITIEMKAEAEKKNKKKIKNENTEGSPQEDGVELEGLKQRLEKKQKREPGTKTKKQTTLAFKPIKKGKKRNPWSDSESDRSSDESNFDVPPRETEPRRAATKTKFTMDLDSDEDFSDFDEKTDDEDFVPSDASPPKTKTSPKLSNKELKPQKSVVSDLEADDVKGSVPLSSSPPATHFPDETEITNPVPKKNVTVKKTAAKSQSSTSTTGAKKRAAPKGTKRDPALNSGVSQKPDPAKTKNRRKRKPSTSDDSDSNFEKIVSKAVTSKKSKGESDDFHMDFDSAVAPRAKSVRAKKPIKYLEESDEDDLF

Regarding `NC1=C(Br)C2=NCCc3c[nH]c(c32)C1=O`, the inhibition is 90%.
